The assay has as its target GRK5 (Homo sapiens, UniProt P34947). As to the kind of experiment: In vitro tubulin phosphorylation assay with purified GRK5. The class given is biochemical. To be noted: 10 μM DFPQ, FIG. 3C. The protocol:
FIGS. 3A-3D: DFPQ inhibits GRK-mediated phosphorylation of the β2AR. FIG. 3A: Representative time course of agonist promoted phosphorylation of the β2AR. […] Cells were lysed and the FLAG-β2AR was immunoprecipitated. Phosphorylation at […] and 356 was analyzed by western blot using a pSer^355/356 antibody while total β2AR was measured using a β2AR C-terminal antibody. The western blot is representative of at least 3 experiments and is quantified in FIG. 3B. FIG. 3C: […] FIG. 3D: Bar graphs represent pixel densitometry of radiolabeled tubulin at the 60 min timepoint from 4 experiments. […]® ADRB2 cells (DiscoveRx) were maintained with the AssayCompleteTM Cell Culture kit (DiscoveRx catalog #92-[…]). […] Cells were read every three minutes for 18 minutes on a PolarStar Optima plate reader (BMG) to establish peak signal. […] Luminescence was determined at room temperature (23-25° C.) on a PolarStar Optima plate reader (BMG). […] Relative assay bias was calculated from the ratio of normalized cAMP and arrestin recruitment responses. […] BRET was measured using a Tecan Infinite F500 microplate reader. […] Bound [35 S]GTPγS was collected by rapid filtration on GF/B filters, washed 4 times with 4 ml of cold GTPγS wash buffer and analyzed by liquid scintillation counting. […] Immunoprecipitated proteins were separated by SDS-PAGE and analyzed by western blot using a β2AR C-terminal tail or phospho-specific antibody. […]

GRK5, sequence (P34947 whole entry, species assumed): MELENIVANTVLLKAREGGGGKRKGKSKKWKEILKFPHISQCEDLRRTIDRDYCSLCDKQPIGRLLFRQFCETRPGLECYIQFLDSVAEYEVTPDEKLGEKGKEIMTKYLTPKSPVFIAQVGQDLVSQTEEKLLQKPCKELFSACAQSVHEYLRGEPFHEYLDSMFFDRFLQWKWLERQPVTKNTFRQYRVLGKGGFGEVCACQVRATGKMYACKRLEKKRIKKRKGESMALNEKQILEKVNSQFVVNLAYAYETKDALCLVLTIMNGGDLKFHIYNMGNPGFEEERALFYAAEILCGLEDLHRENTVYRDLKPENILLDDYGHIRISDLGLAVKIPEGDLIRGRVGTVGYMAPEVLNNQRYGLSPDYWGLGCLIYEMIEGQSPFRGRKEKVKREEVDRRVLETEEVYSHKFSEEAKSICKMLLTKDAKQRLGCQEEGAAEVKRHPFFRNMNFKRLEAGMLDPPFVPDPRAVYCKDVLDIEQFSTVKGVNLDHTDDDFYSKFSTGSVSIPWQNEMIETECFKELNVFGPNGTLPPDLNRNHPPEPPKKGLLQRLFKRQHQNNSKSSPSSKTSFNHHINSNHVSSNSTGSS

As to `Fc1ccc(Nc2nc(NC3CCCCC3)c3ccccc3n2)cc1F` [DFPQ, N^4-cyclohexyl-N^2-(3,4-difluorophenyl)quinazoline-2,4-diamine], the GRK5 autophosphorylation entry is given as “lack of an effect”. Besides, the “phosphorylation of tubulin by GRK5” value (60-minute time course) was “unaffected”.

These data come from patent US20240166626A1, “Compounds and Methods for Preventing, Treating, or Ameliorating Airway Disease” (THOMAS JEFFERSON UNIVERSITY, priority 2021, published 2024).
